Data taken from PubChem BioAssay AID1918994 (Molecular Pharmacology Branch, DTP, NCI, 2023).

Tested on: 292921-168-R-J2-PDC complex spheroid growth
Experiment: Anticancer human tumor 292921-168-R-J2-PDC patient-derived pancreatic carcinoma cell line growth inhibition [AhR]
Details: for IC50: curve of first compound; for viability, T/C: stronger effect = lower value
Summary of the method: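 Agents were dosed in half-log steps down from roughly clinical Cmax, or from 10 microM where Cmax was unknown, alone and with AhR antagonists. Read-out: percent test/control growth of tumor spheroids containing HUVEC and MSC stromal cells.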

[1] = second compound 0.1 µM, first compound 0.00316 µM
[2] = second compound 0.1 µM, first compound 0.01 µM
[3] = second compound 0.1 µM, first compound 0.0316 µM
[4] = second compound 0.1 µM, first compound 0.1 µM
[5] = second compound 0.316 µM, first compound 0.00316 µM
[6] = second compound 0.316 µM, first compound 0.01 µM
[7] = second compound 0.316 µM, first compound 0.0316 µM
[8] = second compound 0.316 µM, first compound 0.1 µM
[9] = second compound 1 µM, first compound 0.00316 µM
[10] = second compound 1 µM, first compound 0.01 µM
[11] = second compound 1 µM, first compound 0.0316 µM
[12] = second compound 1 µM, first compound 0.1 µM
[13] = second compound 3.16 µM, first compound 0.00316 µM
[14] = second compound 3.16 µM, first compound 0.01 µM
[15] = second compound 3.16 µM, first compound 0.0316 µM
[16] = second compound 3.16 µM, first compound 0.1 µM
[17] = second compound 10 µM, first compound 0.00316 µM
[18] = second compound 10 µM, first compound 0.01 µM
[19] = second compound 10 µM, first compound 0.0316 µM
[20] = second compound 10 µM, first compound 0.1 µM
[21] = second compound 0.1 µM, first compound 0.316 µM
[22] = second compound 0.1 µM, first compound 1 µM
[23] = second compound 0.1 µM, first compound 3.16 µM
[24] = second compound 0.1 µM, first compound 10 µM
[25] = second compound 0.316 µM, first compound 0.316 µM
[26] = second compound 0.316 µM, first compound 1 µM
[27] = second compound 0.316 µM, first compound 3.16 µM
[28] = second compound 0.316 µM, first compound 10 µM
[29] = second compound 1 µM, first compound 0.316 µM
[30] = second compound 1 µM, first compound 1 µM
[31] = second compound 1 µM, first compound 3.16 µM
[32] = second compound 1 µM, first compound 10 µM
[33] = second compound 3.16 µM, first compound 0.316 µM
[34] = second compound 3.16 µM, first compound 1 µM
[35] = second compound 3.16 µM, first compound 3.16 µM
[36] = second compound 3.16 µM, first compound 10 µM
[37] = second compound 10 µM, first compound 0.316 µM
[38] = second compound 10 µM, first compound 1 µM
[39] = second compound 10 µM, first compound 3.16 µM
[40] = second compound 10 µM, first compound 10 µM
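Also: spheroids exposed to compounds for seven days after three days of growth.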

Row | Compound | IC50 (second compound 0.1 µM) [µM] | IC50 (second compound 0.316 µM) [µM] | IC50 (second compound 1 µM) [µM] | IC50 (second compound 3.16 µM) [µM] | IC50 (second compound 10 µM) [µM] | viability, T/C [3] [%] | viability, T/C [4] [%] | viability, T/C [7] [%] | viability, T/C [8] [%] | viability, T/C [11] [%] | viability, T/C [12] [%] | viability, T/C [15] [%] | viability, T/C [16] [%] | viability, T/C [19] [%] | viability, T/C [20] [%] | viability, T/C [21] [%] | viability, T/C [22] [%] | viability, T/C [25] [%] | viability, T/C [26] [%] | viability, T/C [29] [%] | further results
1 | CC[C@@]1(O)C(=O)OCc2c1cc1n(c2=O)Cc2cc3c(CN(C)C)c(O)ccc3nc2-1 + Cc1ccccc1N=Nc1ccc(NC(=O)c2ccnn2C)c(C)c1 | 0.0229 | 0.0186 | 0.0185 | 0.0139 | 0.0127 | 38.7 | 16.8 | 36.2 | 18.6 | 39.1 | 15.6 | 32.8 | 14.1 | 28.9 | 16.2 | – | – | – | – | – | viability, T/C (second compound 0.1 µM, first compound 0.000316 µM): 90.9%; viability, T/C (second compound 0.1 µM, first compound 0.001 µM): 90.8%; viability, T/C [1]: 82.5%; viability, T/C [2]: 79.5%; viability, T/C (second compound 0.316 µM, first compound 0.000316 µM): 82.9%; viability, T/C (second compound 0.316 µM, first compound 0.001 µM): 92.5%; viability, T/C [5]: 81.2%; viability, T/C [6]: 66.2%; viability, T/C (second compound 1 µM, first compound 0.000316 µM): 86.6%; viability, T/C (second compound 1 µM, first compound 0.001 µM): 88%; viability, T/C [9]: 76.9%; viability, T/C [10]: 62.9%; viability, T/C (second compound 3.16 µM, first compound 0.000316 µM): 76%; viability, T/C (second compound 3.16 µM, first compound 0.001 µM): 70.4%; viability, T/C [13]: 67.1%; viability, T/C [14]: 58.2%; viability, T/C (second compound 10 µM, first compound 0.000316 µM): 54.4%; viability, T/C (second compound 10 µM, first compound 0.001 µM): 61.1%; viability, T/C [17]: 52.6%; viability, T/C [18]: 55.6%
2 | COc1cc(C2c3cc4c(cc3C(OC3OC5COC(C)OC5C(O)C3O)C3COC(=O)C23)OCO4)cc(OC)c1O (stereo not given) + Cc1ccccc1N=Nc1ccc(NC(=O)c2ccnn2C)c(C)c1 | 0.396 | 0.409 | 0.355 | 0.181 | 0.105 | 92.5 | 85.8 | 86.3 | 71 | 75.6 | 72.2 | 63.4 | 60.8 | 60.8 | 52.7 | 51.6 | 30.8 | 58.7 | 29.9 | 52.3 | viability, T/C [23]: 18%; viability, T/C [24]: 10.8%; viability, T/C [27]: 14.8%; viability, T/C [28]: 11.7%; viability, T/C [30]: 26.3%; viability, T/C [31]: 19.2%; viability, T/C [32]: 10.9%; viability, T/C [33]: 40.5%; viability, T/C [34]: 25.5%; viability, T/C [35]: 16.4%; viability, T/C [36]: 9.21%; viability, T/C [37]: 27.2%; viability, T/C [38]: 23.3%; viability, T/C [39]: 18.9%; viability, T/C [40]: 11.1%
3 | COc1cccc2c1C(=O)c1c(O)c3c(c(O)c1C2=O)CC(O)(C(=O)CO)CC3OC1CC(N)C(O)C(C)O1 (stereo not given) + Cc1ccccc1N=Nc1ccc(NC(=O)c2ccnn2C)c(C)c1 | < 0.0316 | < 0.0316 | < 0.0316 | < 0.0316 | < 0.0316 | 24.3 | 17 | 20.1 | 15.5 | 23.3 | 16.1 | 19 | 13.9 | 17.2 | 12.1 | 5.13 | 0.17 | 4.33 | 0.12 | 2.12 | viability, T/C [23]: 0.69%; viability, T/C [24]: 1.91%; viability, T/C [27]: 0.59%; viability, T/C [28]: 2.35%; viability, T/C [30]: 3.61%; viability, T/C [31]: 0.65%; viability, T/C [32]: 5.48%; viability, T/C [33]: 1.59%; viability, T/C [34]: 5.2%; viability, T/C [35]: 0.73%; viability, T/C [36]: 1.88%; viability, T/C [37]: 0.42%; viability, T/C [38]: 0.36%; viability, T/C [39]: 1.18%; viability, T/C [40]: 4.37%
4 | Nc1ccn(C2OC(CO)C(O)C2(F)F)c(=O)n1 (stereo not given) + Cc1ccccc1N=Nc1ccc(NC(=O)c2ccnn2C)c(C)c1 | < 0.0316 | < 0.0316 | < 0.0316 | < 0.0316 | < 0.0316 | 8.08 | 7.37 | 8.99 | 7.65 | 8.29 | 8.55 | 8.95 | 7.07 | 8.79 | 9.42 | 8.63 | 7.79 | 8.65 | 8.07 | 9.53 | viability, T/C [23]: 8.32%; viability, T/C [24]: 6.76%; viability, T/C [27]: 8.01%; viability, T/C [28]: 7.23%; viability, T/C [30]: 8.8%; viability, T/C [31]: 11.7%; viability, T/C [32]: 7.88%; viability, T/C [33]: 7.3%; viability, T/C [34]: 10.1%; viability, T/C [35]: 8.53%; viability, T/C [36]: 5.4%; viability, T/C [37]: 7.46%; viability, T/C [38]: 10.9%; viability, T/C [39]: 9.28%; viability, T/C [40]: 6.09%
5 | Nc1ncn(C2CC(O)C(CO)O2)c(=O)n1 (stereo not given) + Cc1ccccc1N=Nc1ccc(NC(=O)c2ccnn2C)c(C)c1 | > 1 | > 1 | > 1 | > 1 | > 1 | 101 | 86 | 87 | 76.5 | 84.2 | 79.6 | 66.3 | 72.2 | 58.7 | 61.6 | 73.5 | 72.9 | 76 | 78.6 | 77.2 | viability, T/C [1]: 90.2%; viability, T/C [2]: 94.2%; viability, T/C [5]: 96.9%; viability, T/C [6]: 86.9%; viability, T/C [9]: 80.1%; viability, T/C [10]: 104%; viability, T/C [30]: 72.4%; viability, T/C [13]: 80.2%; viability, T/C [14]: 82.7%; viability, T/C [33]: 63%; viability, T/C [34]: 55.6%; viability, T/C [17]: 63%; viability, T/C [18]: 65.3%; viability, T/C [37]: 62.8%; viability, T/C [38]: 45%
